# Data reported in ChEMBL document CHEMBL2434833, “Optimization of benzodiazepinones as selective inhibitors of the X-linked inhibitor of apoptosis protein (XIAP) second baculovirus IAP repeat (BIR2) domain” (J Med Chem, 2013).
# What was measured:
# [1] = Tmax in C57 mouse at 10 mg/kg, po; assay type: ADME, organism-based; parameters: dose 10 mg/kg, route oral; settings: in vivo
# [2] = Oral bioavailability in C57 mouse at 10 mg/kg; assay type: ADME, organism-based; settings: in vivo
# [3] = AUC in C57 mouse at 10 mg/kg, po; assay type: ADME, organism-based; parameters: dose 10 mg/kg, route oral; settings: plasma
# [4] = Cmax in C57 mouse at 10 mg/kg, po; assay type: ADME, organism-based; parameters: dose 10 mg/kg, route oral; settings: in vivo
# Liver microsomes = settings: human, up to 10 µM
# [5] = Drug uptake in tumor of nude mouse xenografted with human LOX cells at 200 mg/kg, po measured at 8 hrs; assay type: ADME, organism-based, Neoplasm; parameters: dose 200 mg/kg, route oral; settings: read-out: Drug uptake
# [6] = Plasma concentration in nude mouse xenografted with human LOX cells at 200 mg/kg, po measured at 8 hrs; assay type: ADME, organism-based; parameters: dose 200 mg/kg, route oral
# [7] = Drug uptake in tumor of nude mouse xenografted with human LOX cells at 100 mg/kg, po measured at 8 hrs; assay type: ADME, organism-based, Neoplasm; parameters: dose 100 mg/kg, route oral; settings: read-out: Drug uptake
# [8] = Plasma concentration in nude mouse xenografted with human LOX cells at 100 mg/kg, po measured at 8 hrs; assay type: ADME, organism-based; parameters: dose 100 mg/kg, route oral
Tmax [1] [h],bioavailability [2] [%],AUC [3] [ng·h/mL],Cmax [4] [ng/mL],Stability (Liver microsomes),concentration at 8 h [5] [µM],concentration at 8 h [6] [µM],concentration at 8 h [7] [µM],concentration at 8 h [8] [µM],Compound
4,8,5980,873,Stable,–,–,–,–,CN[C@@H](C)C(=O)N[C@@H]1C(=O)N(Cc2c(OC)ccc3ccccc23)c2ccc(C#N)cc2N(C(C)=O)[C@H]1C.Cl
0.25,28,7870,823,–,7.7,5,–,–,CN[C@@H](C)C(=O)N[C@@H]1C(=O)N(Cc2c(C)ccc3ccccc23)c2ccc(C#N)cc2N(C(C)=O)[C@H]1C.Cl
–,–,–,–,–,–,–,18.4,3.3,CN[C@@H](C)C(=O)N[C@H](C(=O)N1CCC[C@H]1c1nc(C(=O)c2ccc(F)cc2)cs1)C1CCCCC1 [LCL-161]
